{"source": "patent US10682353B2", "about": "“Varlitinib for use in the treatment of resistant or refractory cancer” (ASLAN Pharmaceuticals PTE LTD, priority 2015, dated 2020)", "assay_type_in_all_cases": "in vivo, human", "key": {"[1]": {"system": "stage IV cholangiocarcinoma EGFR positive (3+) cancer", "assay": "Example 1: Varlitinib 400 mg bi-daily monotherapy in a patient", "details": "after treatment cycle 6, Varlitinib 400 mg bi-daily monotherapy"}, "[2]": {"system": "stage IV, extra-hepatic cholangiocarcinoma", "assay": "Example 2: Varlitinib 400 mg bi-daily combination therapy followed by monotherapy in a patient", "method": "A person, stage IV, extra-hepatic cholangiocarcinoma, prior treatment: • Whipple • Radiotherapy • Gemzar/cisplatin for 6 months For the first 6 cycles, the patient received Varlitinib 400 mg BID continuously with cisplatin (80 mg/m^2 every 3 weeks) and capecitabine (1000 mg/m2 BID, 2 weeks on, 1 week off). […] In summary, the patient received varlitinib with chemo for 6 cycles and varlitinib monotherapy for another 4 cycles (3 weeks per cycle)."}, "[3]": {"system": "intrahepatic cholangiocarcinoma, stage IV", "assay": "Example 3: Varlitinib 400 mg bi-daily orally and FOLFOX in a patient (ASLAN001-002SG study)", "excerpt": "They received left hemihepatectomy followed by 6 cycles of adjuvant gemcitabine and cisplatin."}}}
{"smiles": "C[C@@H]1COC(Nc2ccc3ncnc(Nc4ccc(OCc5nccs5)c(Cl)c4)c3c2)=N1", "note": "[Varlitinib, (R)—N4-[3-Chloro-4-(thiazol-2-ylmethoxy)-phenyl]-N6-(4-methyl-4,5,-dihydro-oxazol-2-yl)-quinazoline-4,6-diamine]", "values": [{"measurement": "tumour marker CA 19-9", "setting": "[1]; fell from ~900 U/ml", "result": "~250", "unit": "U/ml"}, {"measurement": "liver tumours decreased in size", "setting": "[1]; one patient progressive after gemcitabine and cisplatin/5-FU", "result": "up to 23%"}, {"measurement": "reduction in tumour size (tumor scan)", "setting": "[2]; end of cycle 8, varlitinib monotherapy after 6 cycles of combination with cisplatin and capecitabine", "result": 87, "unit": "%"}, {"measurement": "image scan outcome based on RECIST", "setting": "[2]; end of cycle 10, on varlitinib monotherapy, criterion >20% increase against nadir", "result": "disease progression"}, {"measurement": "reduction in tumor size as the best response from baseline", "setting": "[3]; Varlitinib 400 mg BID with mFOLFOX6 for 9 cycles, then 9 cycles varlitinib monotherapy (2 weeks per cycle), one patient", "result": 53, "unit": "%"}, {"measurement": "latest tumor assessment (response)", "setting": "[3]; after cycle 18, 9 cycles Varlitinib 400 mg BID and mFOLFOX6, then 9 cycles varlitinib monotherapy", "result": "partial response"}]}
